The record followed here is US6835736B1, “Discorhabdin compounds and methods of use” (Harbor Branch Oceanographic Institution, Inc., priority 2003, dated 2004).

Common to all, as to assay type: cell-based
The test system of assay [1] is PANC-1 human pancreatic cell line. Description: Antiproliferative MTT assay, PANC-1 cells. The settings on record: additional 48 hour exposure. Here is the method: (§1) Extracts and compounds were analyzed as to their effects on proliferation of A549 human adenocarcinoma, PANC-1 human pancreatic and P388 murine leukemia cell lines. P388 and NCI/ADR cells were obtained from Dr. R. Camalier, National Cancer Institute, Bethesda, Md., and A549 and PANC-1 cells were obtained from American Type Culture Collection, Rockville, Md. All cell lines were maintained in Roswell Park Memorial Institute (RPMI) medium 1640 supplemented with 10% fetal bovine sernm. All cell lines are cultured in plastic tissue culture flasks and kept in an incubator at 37° C. in humidified air containing 5% CO2. Prior to testing, antibiotic-free stock cultures of each of the cell lines were subcultured to […] by dilution in fresh growth medium at 2 to 3 day intervals.
(§2) To assess the antiproliferative effects of extracts and compounds against the P388 cell line, 200 μl cultures (96-well tissue culture plates, Nunc, Denmark) are established at 1×10^5 cells/ml in drug-free medium or medium containing the test agent at 10.0, 1.0, 0.10 and 0.010 μg/ml. Solvent for all dilutions ethanol. All experimental cultures are initiated in medium containing gentamycin su fate (50 μg/ml; Schering Corporation, Kenilworth, N.J.). After 48-h exposures, P388 cells are enumerated using 3-[4,5-dimethylthiazol-2-yl]-2,5-diphenyltetrazolium bromide (MTT) as described below (M. C. Alley et al., 1988, Cancer Res. 48:589.
(§3) Similar procedures are utilized for A549 and PANC-1 cells which require an additional 48 hour exposure prior to MTT addition. Results are expressed as percent inhibition compared to the negative (no drug) control. Positive drug controls are included to monitor drug sensitivity of each of the cell lines. These include varying dilutions of 5-fluorouracil and adriamycin.
(§4) To quantitate the effects of pure compounds on cell proliferation and resulting IC50 values, 75 μl of warm growth media containing 5 mg/ml MTT is added to each well, cultures returned to the incubator, and left undisturbed for 90 minutes. […]

The test system of assay [2] is P388 murine leukemia cell line. Briefly: Antiproliferative MTT assay, P388 cells. To be noted: Mus musculus, 48-h exposure, read-out: Activity (IC50) P-388. The method, then:
as §1, §2
(§5) To quantitate the effects of pure compounds on cell proliferation and resulting IC50 values, 75 μl of warm growth media containing 5 mg/ml MTT is added to each well, cultures returned to the incubator, and left undisturbed for 90 minutes. To spectrophotometrically quantitate formation of reduced formazan, plates are centrifuged (900×g, 5 minutes), culture fluids removed by aspiration, and 200 μl of acidified isopropanol (2 ml concentrated HCl/liter isopropanol) added per well. The absorbance of the resulting solutions is measured at 570 nm with a plate reader (TECAN Spectra II Plate Reader, TECAN U.S., Research Triangle Park, NC). […]

Assay [3] deals with NCI/ADR cells. Briefly: Antiproliferative MTT assay, NCI/ADR cells. The settings on record: Homo sapiens, NCI/ADR-RES. The method, then: as §1, §5
Assay [4] deals with A549 human adenocarcinoma cell line. Briefly: Antiproliferative MTT assay, A549 cells. The settings on record: additional 48 hour exposure. Here is the method:
as §1, §2, §3, §4

Take `CSC1=CC(=O)C(Br)=CC12C=CNC1=C2C2=NCCc3cn(C)c(c32)C1=O` (stereo not drawn) [Discorhabdin U]: the concentration for half-maximal inhibition (IC50) in assay [1] worked out at 0.069 µg/mL; in assay [2] it was 0.17 µg/mL; in assay [3], 0.22 µg/mL; in assay [4] it was 0.34 µg/mL.

Consider `CSC1=CC(=O)C(Br)=CC12CCNC1=C2c2nccc3cn(C)c(c23)C1=O` (stereo not drawn) [Discorhabdin S], for which the IC50 was 2.6 µg/mL in assay [1], 3.08 µg/mL in assay [2], over 5 µg/mL in assay [3] and over 5 µg/mL in assay [4].

In the case of `CSC1=CC(=O)C(Br)=CC12C=CNC1=C2c2nccc3cn(C)c(c23)C1=O` (stereo not drawn) [Discorhabdin T], the half-maximal inhibitory concentration (IC50) in assay [1] is 0.7 µg/mL; in assay [2], over 5 µg/mL; in assay [3] it was over 5 µg/mL; in assay [4], over 5 µg/mL.
